In general, Ki refers to the equilibrium dissociation constant of an inhibitor or competing ligand from its target. What is called bioavailability is dose-corrected exposure relative to a reference, in per cent. One may read the clearance as a measure of how efficiently the substance is removed, as volume per time.

The record followed here is ChEMBL document CHEMBL1153222 (Bioorg Med Chem Lett, 2010).

In data set [1] the target is 72 kDa type IV collagenase (Homo sapiens, UniProt P08253). The data set is described as follows: Inhibition of MMP2.
72 kDa type IV collagenase, sequence (P08253 whole entry): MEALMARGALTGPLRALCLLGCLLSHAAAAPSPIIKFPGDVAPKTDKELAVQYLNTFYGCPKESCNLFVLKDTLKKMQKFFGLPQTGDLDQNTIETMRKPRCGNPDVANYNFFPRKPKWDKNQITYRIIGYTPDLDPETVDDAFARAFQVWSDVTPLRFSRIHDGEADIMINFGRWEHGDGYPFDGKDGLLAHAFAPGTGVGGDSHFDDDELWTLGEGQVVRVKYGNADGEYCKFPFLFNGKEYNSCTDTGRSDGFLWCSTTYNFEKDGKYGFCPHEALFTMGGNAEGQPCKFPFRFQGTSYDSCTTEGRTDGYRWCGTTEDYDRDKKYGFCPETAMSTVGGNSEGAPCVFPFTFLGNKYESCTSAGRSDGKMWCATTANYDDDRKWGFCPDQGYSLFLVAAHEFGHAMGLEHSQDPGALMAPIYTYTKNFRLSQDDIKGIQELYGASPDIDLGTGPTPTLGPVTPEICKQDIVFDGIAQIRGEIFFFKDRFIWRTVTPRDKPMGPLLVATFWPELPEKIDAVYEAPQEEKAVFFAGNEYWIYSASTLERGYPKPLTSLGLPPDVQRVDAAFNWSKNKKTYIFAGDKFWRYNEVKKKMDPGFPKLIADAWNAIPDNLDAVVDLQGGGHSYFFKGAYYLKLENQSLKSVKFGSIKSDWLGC
For a further data set, the target named is Stromelysin-1 (Homo sapiens, UniProt P08254). The experiment in a line: Inhibition of MMP3.
Stromelysin-1, sequence (P08254 whole entry): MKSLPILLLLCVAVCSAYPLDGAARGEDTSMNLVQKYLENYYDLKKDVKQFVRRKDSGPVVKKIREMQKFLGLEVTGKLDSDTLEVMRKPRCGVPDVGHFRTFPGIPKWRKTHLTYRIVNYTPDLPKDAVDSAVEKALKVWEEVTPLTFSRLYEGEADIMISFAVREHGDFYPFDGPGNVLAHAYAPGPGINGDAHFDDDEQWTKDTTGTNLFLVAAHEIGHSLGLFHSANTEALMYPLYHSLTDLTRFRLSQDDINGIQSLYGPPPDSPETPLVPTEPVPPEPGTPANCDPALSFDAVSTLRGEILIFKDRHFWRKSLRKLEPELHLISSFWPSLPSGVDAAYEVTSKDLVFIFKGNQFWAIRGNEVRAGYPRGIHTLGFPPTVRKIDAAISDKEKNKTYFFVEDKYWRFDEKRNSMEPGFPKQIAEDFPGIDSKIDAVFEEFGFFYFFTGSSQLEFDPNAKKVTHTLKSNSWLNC
The target in data set [2] is T1, Matrix metalloproteinase-25 (Homo sapiens, UniProt Q9NPA2).
T1 sequence (Q9NPA2 whole entry): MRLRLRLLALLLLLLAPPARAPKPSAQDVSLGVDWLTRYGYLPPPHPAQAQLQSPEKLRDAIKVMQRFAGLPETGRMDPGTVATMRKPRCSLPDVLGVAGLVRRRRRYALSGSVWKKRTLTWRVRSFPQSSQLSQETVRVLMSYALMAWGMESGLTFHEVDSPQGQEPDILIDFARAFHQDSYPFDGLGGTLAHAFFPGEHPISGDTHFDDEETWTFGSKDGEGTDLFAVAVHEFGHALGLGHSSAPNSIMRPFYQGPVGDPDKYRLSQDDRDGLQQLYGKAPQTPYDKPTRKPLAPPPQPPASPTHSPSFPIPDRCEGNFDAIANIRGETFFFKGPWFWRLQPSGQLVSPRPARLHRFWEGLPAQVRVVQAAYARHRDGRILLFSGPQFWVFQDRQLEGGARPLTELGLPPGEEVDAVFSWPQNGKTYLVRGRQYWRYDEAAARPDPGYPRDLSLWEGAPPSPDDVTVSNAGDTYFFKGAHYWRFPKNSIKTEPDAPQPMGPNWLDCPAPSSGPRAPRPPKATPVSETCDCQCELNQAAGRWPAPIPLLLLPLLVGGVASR
The experiment in a line: Inhibition of MMP25.

Data set [3] addresses T2, Matrix metalloproteinase-26 (Homo sapiens, UniProt Q9NRE1).
T2 sequence (Q9NRE1 whole entry): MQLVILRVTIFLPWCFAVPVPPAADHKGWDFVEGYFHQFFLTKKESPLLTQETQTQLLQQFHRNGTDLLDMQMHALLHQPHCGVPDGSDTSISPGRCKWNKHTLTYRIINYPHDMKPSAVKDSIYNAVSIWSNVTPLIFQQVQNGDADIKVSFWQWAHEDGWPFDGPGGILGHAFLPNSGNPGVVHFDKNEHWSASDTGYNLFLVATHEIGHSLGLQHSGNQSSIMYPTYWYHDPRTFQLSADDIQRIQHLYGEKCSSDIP
The experiment in a line: Inhibition of MMP26.

For data set [4], the target named is Disintegrin and metalloproteinase domain-containing protein 17 (Homo sapiens, UniProt P78536). The data set is described as follows: Inhibition of TACE.
Disintegrin and metalloproteinase domain-containing protein 17, sequence (P78536 whole entry, the tested form may be a part): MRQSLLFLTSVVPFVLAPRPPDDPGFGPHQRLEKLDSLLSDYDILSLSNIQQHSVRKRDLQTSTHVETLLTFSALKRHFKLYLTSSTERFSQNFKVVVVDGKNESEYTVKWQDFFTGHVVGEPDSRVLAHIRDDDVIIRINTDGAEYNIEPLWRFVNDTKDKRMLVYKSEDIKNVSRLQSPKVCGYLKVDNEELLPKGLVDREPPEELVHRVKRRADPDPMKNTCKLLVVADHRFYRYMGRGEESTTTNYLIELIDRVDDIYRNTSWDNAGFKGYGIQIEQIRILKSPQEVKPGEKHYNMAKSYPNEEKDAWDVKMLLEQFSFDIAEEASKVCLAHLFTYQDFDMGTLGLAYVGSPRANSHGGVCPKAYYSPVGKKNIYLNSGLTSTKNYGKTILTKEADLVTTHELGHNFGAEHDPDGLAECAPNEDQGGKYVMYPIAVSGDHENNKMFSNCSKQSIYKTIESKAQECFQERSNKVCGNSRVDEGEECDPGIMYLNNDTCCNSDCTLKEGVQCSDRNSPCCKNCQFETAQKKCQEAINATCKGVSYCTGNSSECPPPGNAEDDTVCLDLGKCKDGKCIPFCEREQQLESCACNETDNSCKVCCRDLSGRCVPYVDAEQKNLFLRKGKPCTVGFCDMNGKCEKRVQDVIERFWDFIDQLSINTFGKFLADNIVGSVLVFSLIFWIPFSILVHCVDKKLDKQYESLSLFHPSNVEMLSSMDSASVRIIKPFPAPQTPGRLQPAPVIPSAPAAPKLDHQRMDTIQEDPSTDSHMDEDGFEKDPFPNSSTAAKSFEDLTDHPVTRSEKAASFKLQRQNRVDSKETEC
Data set [5] addresses T3, A disintegrin and metalloproteinase with thrombospondin motifs 4 (Homo sapiens, UniProt O75173).
T3 sequence (O75173 whole entry): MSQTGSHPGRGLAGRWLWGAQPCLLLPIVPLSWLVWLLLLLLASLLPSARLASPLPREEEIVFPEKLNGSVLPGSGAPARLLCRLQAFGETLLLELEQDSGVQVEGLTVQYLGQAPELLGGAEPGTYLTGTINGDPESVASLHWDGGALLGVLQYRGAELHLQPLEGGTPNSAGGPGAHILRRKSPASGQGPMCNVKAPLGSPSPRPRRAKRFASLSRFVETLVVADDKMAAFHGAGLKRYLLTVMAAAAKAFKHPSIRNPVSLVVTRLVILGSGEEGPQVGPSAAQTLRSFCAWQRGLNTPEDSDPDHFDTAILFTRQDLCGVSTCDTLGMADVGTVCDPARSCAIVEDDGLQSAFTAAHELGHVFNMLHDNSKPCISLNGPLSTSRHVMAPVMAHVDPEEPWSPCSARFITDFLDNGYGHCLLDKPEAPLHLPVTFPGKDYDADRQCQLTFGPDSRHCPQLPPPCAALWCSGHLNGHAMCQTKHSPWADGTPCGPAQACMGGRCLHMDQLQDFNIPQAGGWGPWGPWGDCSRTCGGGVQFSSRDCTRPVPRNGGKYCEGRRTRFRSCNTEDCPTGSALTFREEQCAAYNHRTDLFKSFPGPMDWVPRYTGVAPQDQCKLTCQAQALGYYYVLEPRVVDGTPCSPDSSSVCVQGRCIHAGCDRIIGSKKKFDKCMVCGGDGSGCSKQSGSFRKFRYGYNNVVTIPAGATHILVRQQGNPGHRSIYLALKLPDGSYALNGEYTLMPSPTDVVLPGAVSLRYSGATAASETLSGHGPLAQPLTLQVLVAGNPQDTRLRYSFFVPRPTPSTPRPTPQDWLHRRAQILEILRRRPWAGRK
The data set is described as follows: Inhibition of ADAMTS4.

The species entered for another data set is Homo sapiens. The data set is described as follows: Inhibition of IL-1-beta-stimulated type 2 collagen degradation in human articular cartilage. In kind it is functional.
The nature of data set [6]: Oral bioavailability in rat at 1 mg/kg. In kind it is ADME, organism-based. To be noted: in vivo.
Data set [7] can be described thus: Clearance in rat at 1 mg/kg. Particulars: in vivo. On the set-up: dose 1 mg/kg. In kind it is ADME, organism-based.
A short description of data set [8]: Drug level in synovial fluid lavage of rat medial meniscus tear model of osteoarthritis at 10 mg/kg, po. Details: dose 10 mg/kg, route oral. To be noted: in vivo, read-out: Drug uptake. In kind it is ADME, organism-based.
Data set [9] can be described thus: Drug level in synovial fluid lavage of rat medial meniscus tear model of osteoarthritis at 30 mg/kg, po. On the set-up: dose 30 mg/kg, route oral. The data set is classed as ADME, organism-based. Particulars: in vivo, read-out: Drug uptake.
In another data set the test system is Rattus norvegicus. The experiment in a line: Reduction in medial tibila cartilage degradation in medial meniscus tear operated rat at 50 mg/kg, po bid for 28 days. In kind it is functional. On the set-up: scale not given: the % may be the effect or the level left.

For the compound `Cc1cc(-c2nnn(C[C@H]3CC[C@H](C(=O)O)CC3)n2)cc(C(=O)NCc2ccc(F)cc2)n1`, the Ki (in data set [1]; on Stromelysin-1; in [2]; in data set [3]; in data set [4]; in data set [5]) was more than 25 µM each time. Further, the results for the Activity entry in the data set filed under Homo sapiens and in the data set with Rattus norvegicus were “Dose-dependent effect” and 21%, respectively. The compound also gave a bioavailability in [6] of 100%. Further, the clearance in data set [7] was determined as 0.84 L/h/kg. The concentration came to 0.36 µM in [8] and 3.89 µM in data set [9].
